Reference: US9492368B2, “External preparation for skin” (HAYASHIBARA CO., LTD., priority 2011, dated 2016)
Marks after values point to notes of the source that are not given here.

Assays:
[1] = Solubility of glucosyladenosines in water (maximum dissolved concentration, HPLC); assay type: physicochemical
Procedure: As a basic property, the solubilities in water of the glucosyladenosines of the present invention were compared with that of adenosine. The 5′-glucosyladenosine prepared in Experiment 1-2 and the 3′-glucosyladenosine prepared in Experiment 2 were determined for solubility in water, and they were compared with that of adenosine. One hundred milligrams of 5′-glucosyladenosine or 3′-glucosyladenosine (these compounds may be collectively called glucosyladenosines, hereinafter) was dissolved in 500 μl of pure water at an ambient temperature (25° C.). While, five milligrams of adenosine was dissolved in 500 μl of pure water at an ambient temperature (25° C.). […] The filtrate was fed to HPLC under the following conditions, followed by determining the respective contents of glucosyladenosines and adenosine based on the peak areas appeared on a chromatogram by an ultraviolet detector, and calculating their concentrations as maximum dissolved concentrations at an ambient temperature (25° C.). The same samples were allowed to stand at a 4° C. cold room for one month and centrifuged, followed by quantifying the contents of glucosyladenosines and adenosine in the resulting supernatants similarly as above to determine their maximum dissolved concentrations at 4° C.
<Conditions for HPLC Analysis>
Apparatus: SHIMADZU UV-VIS DETECTOR SPD-10AV (a detector), LC-10AT (a pump), C-R8A (a recorder), and SIL-20AC (an autosampler);
Mobile phase: (0.1 v/v % aqueous acetic acid solution)/(methanol)=96/4 (v/v),
Detection wavelength: 260 nm,
Injection volume: 20 μl, and
Column temperature: 40° C.

profilaggrin = assay: Differentiation of keratinocytes: profilaggrin protein expression in NHEK cells by western blotting; assay type: cell-based, human; conditions: eight days, relative to no addition = 1
Text: For the anti-wrinkle action of glucosyladenosines, the effect of glucosyladenosines on keratinocytes in the skin was examined as follows using normal human epidermal keratinocytes commonly used for evaluating accelerators for differentiating keratinocytes in the skin. Using normal human epidermal keratinocytes (derived from human newborn and commercialized by Kurabo Industries Ltd., Okayama, Japan, and abbreviated as “NHEK cells”, hereinafter), the effects of glucosyladenosines on the differentiation of keratinocytes was evaluated by comparing the expression level of profilaggrin, as a marker protein of cells in the granular layer, which is specifically expressed in the cells when keratinocytes differentiate into the cells from those in the basal lamina and which is determined by the western blotting method using an antibody specific to the marker protein. In this experiment, the increment of profilaggrin means that cells in the granular layer have been increased as a result of accelerating the differentiation of keratinocytes in the basal lamina.
NHEK Cells, which had been suspended in EpiLife medium, commercialized by Caskade Biologics Inc., Oregon, USA, containing EDGS (EpiLife Defined Growth Supplement) (abbreviated as “EpiLife medium containing EDGS”, hereinafter), were inoculated to “FALCON MULTI-WELL™ 6WELL”, 6-well plate, commercialized by Becton, Dickinson and Co., NJ, USA, which had been coated with “Cellmatorix Type IV”, a product name of collagen, commercialized by Nitta Gelatin Inc., Osaka, Japan, in a cell amount of 5×10^5 cells/1.5 ml/well; and cultured at 37° C. for two days under a 5 v/v % CO2 condition. […] As control 1, adenosine was diluted with EpiLife medium to give a final concentration of 0.1 μM, 1 μM or 10 μM, and the dilution was added to the plates in a volume of 1.5 ml/well. As control 2, EpiLife medium was only added to plates in a volume of 1.5 ml/well. Thereafter, the cells were incubated for eight days while replacing the medium in each well with a fresh preparation of the same medium as added initially every other day. The culture medium in each well was removed by aspiration, and the resulting cells were washed by adding PBS, followed by adding an extraction buffer to the cells in a volume of 100 μl/well, detaching the cells from each well with a cell scraper, and collecting the cells in “EPPENDORF TUBE”, a product name of a 1.5 ml microtube, commercialized by Eppendorf AG, Hamburg, Germany. The collected cells were mixed by a vortex mixer, suspended, allowed to stand over ice for 30 min, and centrifuged at 15,000×g for 10 min at 4° C. to collect a supernatant for use as a sample for analysis. 20 mM Tris-HCl buffer (pH 8.0) containing 2% by mass of sodium dodecyl sulfate (SDS), 1 mM edetic acid, 20 μM phenylmethylsulfonyl fluoride (PMSF), 20 μM leupeptin, and 0.1 μM aprotinin was used as an extraction buffer.
Twelve microliters of the above sample for analysis was added to eight micriloters of 2.5 w/v % SDS aqueous solution containing 5 v/v % dithiothreitol (DTT), and the mixture was in usual manner subjected to SDS-polyacrylamide gel electrophoresis after charged on an SDS-polyacrylamide gel in an amount of 20 μg protein per lane. After completing the electrophoresis, proteins contained in the gel were in usual manner transferred to a nitrocellulose membrane, which was then soaked in “BlockAce”, a product name of a blocking solution commercialized by Dainippon Sumitomo Pharma Co., Ltd., Osaka, Japan, to inhibit non-specific reactions. […]

[2] = test system: three-dimensional skin model (EPI-200 Kit); assay: Cytotoxicity: LDH release from three-dimensional skin model; assay type: cell-based; conditions: 18 hours, control = 1.0
Procedure: To examine whether glucosyladenosines are successively applied to the skin as ingredients for sustainable external dermal agents, they were examined for cytotoxicity. The strengths of cytotoxicity of glucosyladenosines were examined with an index of […] (LDH) that is released when cell are damaged, as an influence of glucosyladenosines and adenosine on three dimensional skin. […] A system, to which 30% ethanol with no glucosyladenosines and adenosine was added, was provided as a control. For the collected media, the activity of […] (LDH) released from each skin model was assayed on “CYTOTOXICITY DETECTION KIT (LDH)”, a product name of Hoffmann-La Roche Ltd., Basel, Switzerland, and calibrated for obtaining a relative LDH activity by regarding the LDH activity of the control as 1.0 in order to evaluate the cytotoxicity for each sample.

SMILES	Maximum dissolved concentration ([1]; 4° C., one month)	Maximum dissolved concentration ([1]; 25° C., one day)	Expression level of profilaggrin (profilaggrin; 0.1 μM in medium)	Expression level of profilaggrin (profilaggrin; 1 μM in medium)	Expression level of profilaggrin (profilaggrin; 10 μM in medium)	Relative LDH activity ([2]; concentration 5%)	Relative LDH activity ([2]; concentration 0.1%)	Relative LDH activity ([2]; concentration 1%)
Nc1ncnc2c1ncn2[C@@H]1O[C@H](CO[C@H]2O[C@H](CO)[C@@H](O)[C@H](O)[C@H]2O)[C@@H](O)[C@H]1O [5′-Glucosyladenosine, α-D-glucopyranosyl-(1→5′)-adenosine]	> 15.7 w/v %	> 16.1 w/v %	2.1*	3.8**	2.8**	0.79	–	–
Nc1ncnc2c1ncn2[C@@H]1O[C@H](CO)[C@@H](O[C@H]2O[C@H](CO)[C@@H](O)[C@H](O)[C@H]2O)[C@H]1O [3′-Glucosyladenosine, α-D-glucopyranosyl-(1→3′)-adenosine]	2 w/v %	2 w/v %	1.6*	2.4**	2.0**	0.99	–	–
Nc1ncnc2c1ncn2[C@@H]1O[C@H](CO)[C@@H](O)[C@H]1O [Adenosine, reference compound]	0.4 w/v %	0.8 w/v %	1.1	1.2	0.9	–	1.38	3.68
